Assay: Plasma exposure (PK analysis) in the xenograft efficacy study
Type: in vivo
Conditions: mouse, oral, COLO205 xenograft model, 25 mg/kg twice daily, read-out: plasma exposure, steady state AUC
Experimental: All animal studies were conducted in accordance with the Institute for Laboratory Animal Research Guide for the Care and Use of Laboratory Animals and the USDA Animal Welfare Act. The same formulation was used for both COL0205 and B9 xenograft studies. The powder of test compound was dissolved in pure N-methyl-2-pyrrolidone (NMP). Diluent consists of PEG400: TPGS:Poloxamer 407:Water (40:5:5:50). Before gavage administration, fresh stock of NMP compound solution (or NMP for vehicle) was thoroughly mixed with the diluents to make a uniform suspension. Dosing volume is 5 μl/g. On the last day of the efficacy study, blood samples were collected at 0, 2, 4, and 8 hrs after last dosing, 2 animals/time point, for PK analysis.

CCCS(=O)(=O)Nc1ccc(F)c(C(=O)c2c[nH]c3ncc(-c4ccc(Cl)cc4)cc23)c1F [vemurafenib]
AUC: 200 µg·h/mL

From patent US10421761B2, “Compounds for kinase modulation, and indications therefor” (Plexxikon Inc., priority 2013, dated 2019)
